Test results taken from patent publication US12116593B2, “Method for producing adenohypophysis or precursor tissue thereof” (RIKEN, priority 2014, dated 2024).
Ends that are not written are not given here.

How the values were obtained:
Human ES cells (KhES-1) = experiment: Differentiation of human ES cell aggregates in serum-free suspension culture (SFEBq), fluorescent antibody method; type: cell-based
From the text: Human ES cells (KhES-1) were subjected to maintenance culture by a conventional method on MEF and used. To monitor differentiation induction into a hypothalamus tissue, KhES-1 wherein Venus cDNA is knocked-in into the gene of Rx which is a hypothalamus neuroepithelium marker was used. To differentiate human ES cells by serum-free suspension culture of aggregate (SFEBq method), human ES cells were dispersed to single cells by enzyme by the method of Nakano et al. (Cell Stem Cell, 2012), and reaggregated in a low cell adhesive V-bottom 96 well plate (SUMITOMO BAKELITE). 5,000 cells were seeded per well, and cultured in the following differentiation medium at 5% CO2, 37° C. gfCDM medium (growth-factor-free Chemically Defined Medium; Wataya et al., PNAS, 2008)+5% KSR (Invitrogen).
With the day of seeding as day 0 of differentiation culture, 20 μM Y-27632 (ROCK inhibitor; inhibitor of cell death during dispersion: Watanabe et al., Nature Biotechnology, 2007) was added from day 0 to day 3, and a half of the medium was exchanged with a differentiation medium free of Y-27632 on days 3 and 6 of culture. From day 3 to day 18 of culture, BMP4 (final concentration 5 nM) was added to the medium. On and after day 18, a half of the medium was exchanged every 3 days with a medium free of BMP4. […] On and after day 18, the oxygen partial pressure during the culture was set to 40%. Tissue differentiation was analyzed by a fluorescent antibody method.
The cell aggregates derived from human ES cells and simultaneously containing ventral hypothalamus tissue and epidermal placode were formed by the method of Example 1, culture was continued until day 27 or day 30 of culture under similar conditions, and the aggregates were analyzed by a fluorescent antibody method. In some culture, FGF2 (final concentration 20 ng/ml) was added to the medium from day 15 of culture.
By the method of Example 1, an influence of the presence or absence of BMP4 addition on the differentiation of cell aggregates was analyzed by a fluorescent antibody method.
By the method of Example 1, an influence of the presence or absence of the addition of hedgehog signal agonist SAG on the differentiation of cell aggregate was analyzed by a fluorescent antibody method.
In addition to the method of Example 8, differentiation of hypophysial placode reacted with Notch signal inhibitor DAPT (10 μM) from day 72 to day 82 of culture was analyzed by a fluorescent antibody method.

[1] = system: aggregates containing ACTH-producing cells; experiment: In vitro ACTH release from aggregates containing ACTH-producing cells, ELISA; type: cell-based, human; details: 37° C.
Procedure: In vitro hormone secretory capacity was analyzed using the aggregates containing ACTH-producing cells produced by the method of Example 5. Using a 1.5 ml Eppendorf tube containing 250 μl of HBSS(−) containing 16 aggregates at day 80 of culture, the aggregates were incubated in the presence or absence of CRH (1 μg/ml) at 37° C. for 10 min. The concentration of ACTH in the culture supernatant was quantified by the ELISA method.
Furthermore, to examine feedback suppressive ability due to downstream hormone (glucocorticoid), 16 aggregates on day 80 of culture were preincubated in the presence or absence of hydrocortisone (20 μg/ml) at 37° C. for 3 hr, and the effect of release of ACTH after CRH treatment was analyzed.

[2] = system: aggregate containing GH-producing cells; experiment: In vitro GH release from aggregates containing GH-producing cells, ELISA; type: cell-based, human; details: GRF 100 ng/ml, 37° C., 30 min; aggregates differentiated with hydrocortisone 1 μg/ml days 72-84; day 84
Procedure: In addition to the method of Example 10, in vitro hormone secretory capacity was analyzed using the aggregate containing GH-producing cells differentiated in a medium containing hydrocortisone (1 μg/ml) from days 72 to 84 of culture. Using a 1.5 ml Eppendorf tube containing 500 μl of HBSS containing 33 aggregates at day 84 of culture, the aggregates were incubated in the presence or absence of GRF (100 ng/ml) at 37° C. for 30 min. The concentration of GH in the culture supernatant was quantified by the ELISA method.
In addition to the method of Example 10, in vitro hormone secretory capacity was analyzed using the aggregate containing GH-producing cells differentiated in a medium containing dexamethasone (40 ng/ml) from days 70 to 84 of culture. Using a 1.5 ml Eppendorf tube containing 750 μl of a medium containing 30 aggregates at day 84 of culture, the aggregates were incubated in the presence of GRF (0.1, 1, 10 μg/ml) at 37° C. for 30 min. The concentration of GH in the culture supernatant was quantified by the ELISA method. In addition, in order to investigate a potential of somatostatin to suppress GH secretion, 18 aggregates at day 98 of culture were incubated in the presence or absence of somatostatin (100 ng/ml) at 37° C. for 90 min, and effects on GH release after GRF treatment were analyzed.

Tbx19 = Tbx19 expression in aggregates by qPCR; type: cell-based, human; details: DAPT 10 μM day 65 to 74; aggregates on day 74
Procedure: According to the method of Example 5, hypophysial placode derived from human ES cells was formed, and cultured for a long term. DAPT (10 μM), a Notch signal inhibitor, was allowed to act thereon from day 65 to day 74 of culture, and the effect thereof was analyzed by a qPCR method.

mouse system = experiment: Exogenous BMP4 added to mouse system; type: cell-based
[3] = SAG 2 μM from day 6, with BMP4, day 24 and 27
[4] = BMP4 5 nM day 3-18 vs no addition, day 24

In the case of `CN[C@H]1CC[C@H](N(Cc2cccc(-c3ccncc3)c2)C(=O)c2sc3ccccc3c2Cl)CC1` [SAG, 3-Chloro-N-[trans-4-(methylamino)cyclohexyl]-N-[[3-(4-pyridinyl)phenyl]methyl]-benzo[b]thiophene-2-carboxamide], the “tissue differentiated under BMP4 non-addition conditions” value (Human ES cells (KhES-1); BMP4 not added, SAG 200 nM d6-25, day 24) is reported as “FoxG1-positive and Nkx2.1-positive basal ganglion was differentiated”, the “formation of hypophysial placode on the surface” value (Human ES cells (KhES-1); [3]) is reported as “hypophysial placode was formed on the surface” and the “tissue formed in the inside of the aggregates” value (Human ES cells (KhES-1); [3]) is reported as “ventral hypothalamus tissue (Rx::Venus-positive, Chx10-negative, Nkx2.1-positive) was formed in the inside of the aggregates”.

For “CRH: hypothalamic stimulus inducing release of ACTH from ACTH-producing cells (SEEPPISLDLTFHLLREVLEMARAEQLAQQAHSNRKLMEII; ends and bridges not checked; UniProt P06850 154-194, looked up)”, the “ACTH concentration in culture supernatant vs incubation in absence of CRH” value ([1]; CRH 1 μg/ml, 10 min, 16 aggregates at day 80) was “not less than 5 fold”.

In the case of “FGF2: known cytokine also called basic fibroblast growth factor (bFGF)”, the “increase of formation of hypophysial placode” value (Human ES cells (KhES-1); FGF2 20 ng/ml from day 15 of culture, day 27/30 aggregates) is reported as 30%.

For `C[C@]12CCC(=O)C=C1CC[C@@H]1[C@@H]2[C@@H](O)C[C@@]2(C)[C@H]1CC[C@]2(O)C(=O)CO` [hydrocortisone], the “ACTH concentration after CRH treatment relative to preincubation without hydrocortisone” value ([1]; hydrocortisone 20 μg/ml preincubation 3 hr, day 80 aggregates) was “less than one-sevenths”.

With “GRF: stimulus inducing release of GH from GH-producing cells (YADAIFTNSYRKVLGQLSARKLLQDIMSRQQGESNQERGARARL; ends and bridges not checked; UniProt P01286 32-75, looked up)” the “GH concentration in culture supernatant vs incubation in absence of GRF” value [2] was “not less than 6 fold”.

For `C[C@H](NC(=O)Cc1cc(F)cc(F)c1)C(=O)N[C@H](C(=O)OC(C)(C)C)c1ccccc1` [DAPT, N—[N-(3,5-difluorophenacetyl)-1-alanyl]-S-phenylglycine t-butyl ester], the “endocrine cells found in hypophysial placode after DAPT” value (Human ES cells (KhES-1); DAPT 10 μM day 72 to 82) was “LH-producing cells and FSH-producing cells were found in the hypophysial placode” and the “increase of Tbx19 expression vs non-treatment group” value (Tbx19) was at least 8 times.

With “BMP4: bone morphogenetic factor signal transduction pathway activating substance; a known cytokine” the “formation of neuroepithelial tissue (hypothalamus) inside the cell aggregate” value (mouse system) was “acted inhibitingly on the formation of the neuroepithelial tissue (hypothalamus)”, the “formation of surface ectoderm” value (mouse system) was “promoted formation of surface ectoderm” and the “differentiation of neural tissue in the aggregate” value (Human ES cells (KhES-1); [4]) was “differentiation induction of neural tissue of hypothalamus”. For the same compound, the “formation of surface ectoderm” value (Human ES cells (KhES-1); [4]) was “active formation of surface ectoderm”.
